Test results: US11718596B2, “Amyloid targeting agents and methods of using the same” (The Regents of the University of California, priority 2014, dated 2023)
Values after ≈ are worked out from the molar mass of the structure shown.

Legend:
[1] = Hydrolytic decomposition in PBS by HPLC; type: physicochemical; conditions: PBS with 5% DMSO, 25° C., read-out: t1/2 for hydrolysis (converted)
Source text: In certain in vivo environments (especially at high or low pH or in the presence of esterases), ANCA-11 is expected to decompose very rapidly due to the poor stability of its ester functionality. The amide functionality in Compound 1 alleviates the problem of hydrolytic instability inherent to ANCA-11.

[2] = tested on: amyloids derived from amyloid-β, PrP, and α-synuclein; type: binding
[3] = tested on: amyloid deposits in murine AD neuronal tissue; test: Tissue staining of amyloid deposits in AD mouse brain sections; conditions: for fluorescence labeling of amyloid deposits in hippocampal brain sections: mouse model for Alzheimer's disease, FIG. 13; for staining of amyloid deposits in murine AD neuronal tissue: figure legends
[4] = target: aggregated Aβ(1-42) peptide (Homo sapiens, UniProt P05067); conditions: in vitro; characteristic fluorescence upon binding to Alzheimer's related amyloids
Sequence of aggregated Aβ(1-42) peptide (P05067 672-713): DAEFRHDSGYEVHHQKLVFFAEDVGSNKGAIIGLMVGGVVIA

[5] = tested on: prion amyloid deposits in the retina
Solubility studies = conditions: lower pH and higher buffer concentration
[6] = target: amyloid deposits in the retina (Homo sapiens, UniProt P05067); test: Ex vivo retina analysis of J20 mice after systemic (tail vein) dosing; conditions: J20 mouse, 30 minutes prior to sacrifice, co-localizes with anti-Aβ antibody
Sequence of amyloid deposits in the retina (P05067 672-713 limits assumed): as the sequence (P05067 672-713) above

SMILES: COCCOCCOCCOC(=O)/C(C#N)=C/c1ccc2cc(N3CCCCC3)ccc2c1 [ANCA-11, (E)-2-(2-(2-methoxyethoxy)ethoxy)ethyl 2-cyano-3-(6-(piperidin-1-yl)naphthalen-2-yl)acrylate, reference compound]
- half-life [1]: ~0.458 days

SMILES: COCCOCCOCCNC(=O)/C(C#N)=C/c1ccc2cc(N3CCCCC3)ccc2c1 [Compound 1, (E)-2-Cyano-N-(2-(2-(2-methoxyethoxy)ethoxy)ethyl)-3-(6-(piperidin-1-yl)naphthalen-2-yl)acrylamide]
- discrimination of amyloids of different disease origin based on color of emission [2]: can distinguish between amyloids of different disease origin based on color of emission
- fluorescence labeling of amyloid deposits in hippocampal brain sections [3]: fluorescence labeling of amyloid deposits
- half-life [1]: ~6.25 days
- ability to bind selectively to amyloids [4]: bind selectively to amyloids
- visualization of amyloid deposits in the retina of live mice ([5]; mice inoculated with GPI-anchorless PrP, intraperitoneal injection): allowed for the visualization of amyloid deposits in the retina
- accumulation in blood and retinal tissue after IP injection ([5]; wt mouse, fluorescence image immediately after IP injection): immediately accumulates in the blood and in the retinal tissue
- solubility (physchem; aqueous buffer, solubility at lower pH and higher acidic buffer strength): > 6000 µg/mL
- solubility (physchem; aqueous with cosolvent or surfactant or cyclodextrin, solubility in surfactants): > 5000 µg/mL
- solubility (physchem; aqueous with cosolvent or surfactant or cyclodextrin, solubility in the other water miscible solvents listed): 2000 to 3000 µg/mL (≈ 4.43 to 6.64 mM)
- solubility (physchem; oil or lipid, solubility in all oils tested): > 5000 µg/mL
- solubility (physchem; organic solvent or mixture, Solubility (mg/mL)): 20000 µg/mL (≈ 44.3 mM)
- solubility (physchem; organic solvent or mixture, solubility in water miscible solvents: alcohols): > 5000 µg/mL
- solubility (physchem; pH 2, aqueous buffer, solubility in acid buffers): ≤ 350 µg/mL
- solubility (physchem; pH 2.5, aqueous buffer, Conc (mg/mL)): 1630 µg/mL (≈ 3.61 mM)
- solubility (physchem; pH 7.4, aqueous buffer, Conc (mg/mL)): 7.4 µg/mL (≈ 0.0164 mM)
- solubility (physchem; water, Conc (mg/mL)): 3.1 µg/mL (≈ 0.00686 mM)
- solubility (physchem; water, solubility in water): 3 µg/mL (≈ 0.00664 mM)
- fold increase of solubility in acid buffer vs water (Solubility studies): 100 fold
- crossing of the blood-retina barrier [6]: can cross the blood-retina barrier

SMILES: COCCOCCOCCNS(=O)(=O)/C(C#N)=C/c1ccc2cc(N3CCCCC3)ccc2c1 [Compound 2, (E)-1-cyano-N-(2-(2-(2-methoxyethoxy)ethoxy)ethyl)-2-(6-(piperidin-1-yl)naphthalen-2-yl)ethenesulfonamide]
- fluorescence labeling of amyloid deposits in hippocampal brain sections [3]: fluorescence labeling of amyloid deposits

SMILES: COCCOCCOCCOCCOCCOCCNC(=O)/C(C#N)=C/c1ccc2cc(N3CCCCC3)ccc2c1 [Compound 3, (E)-2-cyano-N-(2,5,8,11,14,17-hexaoxanonadecan-19-yl)-3-(6-(piperidin-1-yl)naphthalen-2-yl)acrylamide]
- staining of amyloid deposits in murine AD neuronal tissue [3]: staining of amyloid deposits

SMILES: N#C/C(=C\c1ccc2cc(N3CCCCC3)ccc2c1)C(=O)NCC(O)CO (stereo not shown) [Compound 5, (E)-2-cyano-N-(2,3-dihydroxypropyl)-3-(6-(piperidin-1-yl)naphthalen-2-yl)acrylamide]
- staining of amyloid deposits in murine AD neuronal tissue [3]: staining of amyloid deposits

SMILES: COC1OC(Cn2cc(COCCOCCOCCNC(=O)/C(C#N)=C/c3ccc4cc(N5CCCCC5)ccc4c3)nn2)C(O)C(O)C1O (stereo not shown) [Compound 19, (E)-2-cyano-3-(6-(piperidin-1-yl)naphthalen-2-yl)-N-(2-(2-(2-((1-((3,4,5-trihydroxy-6-methoxytetrahydro-2H-pyran-2-yl)methyl)-1H-1,2,3-triazol-4-yl)methoxy)ethoxy)ethoxy)ethyl)acrylamide]
- staining of amyloid deposits in murine AD neuronal tissue [3]: staining of amyloid deposits

SMILES: COC1OC(Cn2cc(CNC(=O)/C(C#N)=C/c3ccc4cc(N5CCCCC5)ccc4c3)nn2)C(O)C(O)C1O (stereo not shown) [Compound 20, (E)-2-cyano-3-(6-(piperidin-1-yl)naphthalen-2-yl)-N-((1-((3,4,5-trihydroxy-6-methoxytetrahydro-2H-pyran-2-yl)methyl)-1H-1,2,3-triazol-4-yl)methyl)acrylamide]
- staining of amyloid deposits in murine AD neuronal tissue [3]: staining of amyloid deposits
